# Measured values as given in patent US20090088380A1, “GHRH ANALOGS AND THERAPEUTIC USES THEREOF” (priority 2007, published 2009).
# pIC50: −log10 of the molar value. Read-outs that look alike come from different tables or passages of the source. Non-standard residues stand in square brackets, D forms with d. Residues, ends and D or L forms follow the SMILES beside them. No end group written: not given here.
# Tests used:
# [1] = molecular target: T1, human GHRH receptor (Homo sapiens, UniProt Q02643); experiment: 125I-GHRH competitive binding assay in BHK cell membrane preparations; settings: in comparison with hGHRH(1-29)NH2; ratio IC50 hGHRH(1-29)-NH2/IC50 analog
# T1 construct: expressed in transfected cells; host or cells: BHK (baby hamster kidney) 570 cells, membrane preparations
# T1 sequence (Q02643 23-423): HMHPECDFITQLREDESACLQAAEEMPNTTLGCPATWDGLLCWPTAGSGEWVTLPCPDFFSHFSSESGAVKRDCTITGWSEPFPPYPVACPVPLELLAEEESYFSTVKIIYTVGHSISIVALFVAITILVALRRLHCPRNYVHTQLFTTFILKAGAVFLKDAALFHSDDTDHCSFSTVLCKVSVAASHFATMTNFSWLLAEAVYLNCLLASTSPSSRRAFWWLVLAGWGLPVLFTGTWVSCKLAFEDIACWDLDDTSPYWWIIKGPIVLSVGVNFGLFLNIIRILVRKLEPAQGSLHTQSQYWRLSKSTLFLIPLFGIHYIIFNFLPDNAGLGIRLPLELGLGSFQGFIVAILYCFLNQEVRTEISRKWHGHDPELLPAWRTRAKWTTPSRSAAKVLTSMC
# Experimental: Non specific binding was determined in presence of 1 μM hGHRH(1-29)NH2. Incubation was carried out at equilibrium (23° C., 60 min) and stopped by centrifugation (12,000 g, 5 min, at 4° C.). The radioactivity content in pellets was determined by gamma counting. The affinity of hGHRH(1-29) NH2 was tested in each experiment to assess the validity of the assay and determine the relative affinity of the analogs.
# Values represent the mean±SEM of 3 experiments performed in triplicate for the analogs and the mean±SEM of 2 experiments performed in triplicate for hGHRH(1-44) NH2.
# For the binding assay results presented in Tables 8 to 11, values represent the mean±SEM of 8 independent experiments performed in triplicate for the analogs and the mean±SEM of 4 experiments performed in triplicate for hGHRH(1-29)NH2. […] The relative affinity was obtained by taking the ratio IC50 of hGHRH (1-29)-NH2/IC50 analog.
# [2] = In vitro proteolysis assay in rat serum; format: in vitro ADME; settings: for Relative resistance to proteolysis in vitro: compared to hGHRH(1-29)-NH2; for Residual concentration (% of initial concentration): incubation 0 min
# Experimental: Proteolysis was stopped by adding 800 μl of ice-cold stop buffer (potassium-phosphate buffer, acidified to pH 0.8 with trifluoroacetic acid (TFA) and boiling 5 min (rat serum only). After centrifugation (12000 g, 5 min, 4° C.) (rat serum only), serum-peptide mixtures were passed through a conditioned Sep-Pak C-18 cartridge to extract native GHRH or a GHRH analog residual concentrations from serum proteins. The native GHRH or the analog was eluted in 2 ml of 50% acetonitrile-0.01% TFA/50% 0.01% aqueous TFA. 200 μl of extracted peptide, representing 1 μg of GHRH or analog at time 0, was quantified by analytical HPLC, using one μ-Bondapak C18 column (10 μm particle size, 0.39×15 cm) (rat serum) or two C18 columns in series (human serum and plasma) and a binary solvent system composed of NaClO4 0.01 M, pH 2.5 and acetonitrile. A linear gradient from 30 to 60% acetonitrile over 45 min (rat serum) or 30 to 50% (human serum and plasma) was used. Elution of intact peptide was monitored at 214 nm and residual concentration determined by assessment of peak surface areas.
# [3] = molecular target: T2, hGHRH(1-44)-NH2 binding sites in rat anterior pituitary (Rattus norvegicus, UniProt Q02644); experiment: Relative binding affinity in rat anterior pituitary preparations, [125I-Tyr10]hGHRH(1-44)-NH2 radioligand; settings: values compared to hGHRH(1-29)-NH2
# T2 construct: from tissue; host or cells: anterior pituitary of 2-month old male Sprague Dawley rats
# T2 sequence (Q02644 23-423 isoform Q02644-2 limits assumed): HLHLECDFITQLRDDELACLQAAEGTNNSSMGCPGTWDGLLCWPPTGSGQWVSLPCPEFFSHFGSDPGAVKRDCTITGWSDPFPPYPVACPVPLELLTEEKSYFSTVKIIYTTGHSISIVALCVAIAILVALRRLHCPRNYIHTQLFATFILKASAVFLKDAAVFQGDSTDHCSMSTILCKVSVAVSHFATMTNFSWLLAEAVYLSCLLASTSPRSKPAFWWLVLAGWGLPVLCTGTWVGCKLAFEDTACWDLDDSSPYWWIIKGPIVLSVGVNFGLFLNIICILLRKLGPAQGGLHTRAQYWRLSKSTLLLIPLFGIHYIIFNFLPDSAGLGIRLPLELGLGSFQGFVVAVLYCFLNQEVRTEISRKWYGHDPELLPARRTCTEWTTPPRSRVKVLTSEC
# From the text: Initial selection of a candidate from the original 14 polysubstituted GHRH analogs described in the U.S. Pat. No. 5,854,216 was based upon in vitro data on receptor affinity in 2-month old male Sprague Dawley rat anterior pituitary preparations. The embodiments are based on the affinity of selected GHRH analogs for the human GHRH receptor (hGHRH-R) in baby hamster kidney (BHK) cells transfected with hGHRH-R, and on resistance to proteolysis in rat serum, human plasma or human serum. More precisely, the preferred drug candidates were selected, as compared to hGHRH(1-29)-NH2, for: i-their increased relative binding affinity to hGHRH(1-44)-NH2 binding sites in rat anterior pituitary in vitro as well as to hGHRH-R in BHK-expressing cells in vitro; and ii-their relative resistance to proteolysis in vitro.
# [4] = molecular target: human GHRH receptor (human) (UniProt Q02643); experiment: competition with [125I-Tyr10]hGHRH(1-44)NH2, BHK cell membrane preparations expressing the human GHRH receptor
# [5] = molecular target: human GHRH receptor (human) (UniProt Q02643); experiment: as above; remark: listed apart in the source
# [6] = molecular target: rat GHRH receptor (rat) (UniProt Q02644); experiment: competition with [125I-Tyr10]hGHRH(1-44)-NH2, rat anterior pituitary membrane preparations
Relative binding affinity (R1) in hGHRH-R BHK-expressing cells [1],Relative resistance to proteolysis in vitro [2],Residual concentration (% of initial concentration) [2],Relative binding affinity in rat anterior pituitary [3],pIC50 [4],pIC50 [5],Relative binding affinity (R1) in comparison with hGHRH(1-29)NH2 ([5]; scale: ratio IC50 of hGHRH),Relative binding affinity in rat anterior pituitary (relative to hGHRH(1-29)-NH2) [6],Molecule
239 ± 55,2.25,100 ± 0 % of initial concentration,4.90 ± 2.70,–,–,–,–,"CC[C@H](C)[C@H](NC(=O)[C@H](C)NC(=O)[C@H](CC(=O)O)NC(=O)[C@@H](C)NC(=O)[C@@H](N)Cc1ccc(O)cc1)C(=O)N[C@@H](Cc1ccccc1)C(=O)N[C@H](C(=O)N[C@@H](CC(N)=O)C(=O)N[C@@H](CO)C(=O)N[C@H](Cc1ccc(O)cc1)C(=O)N[C@@H](CCCNC(=N)N)C(=O)N[C@@H](CCCCN)C(=O)N[C@H](C(=O)N[C@@H](CC(C)C)C(=O)NCC(=O)N[C@@H](CCC(N)=O)C(=O)N[C@@H](CC(C)C)C(=O)N[C@@H](CO)C(=O)N[C@@H](C)C(=O)N[C@@H](CCCNC(=N)N)C(=O)N[C@@H](CCCCN)C(=O)N[C@@H](CCCCN)C(=O)N[C@@H](CC(C)C)C(=O)N[C@@H](CCC(N)=O)C(=O)N[C@@H](CC(=O)O)C(=O)N[C@H](C(=O)N[C@@H](CCSC)C(=O)N[C@@H](CO)C(=O)N[C@@H](CCCNC(=N)N)C(N)=O)[C@@H](C)CC)C(C)C)[C@@H](C)O [GHRH analog #3, [D-Ala^2, D-Tyr^10, Lys^22] hGHRH(1-29)-NH2] (H-Y[dA]DAIFTNS[dY]RKVLGQLSARKKLQDIMSR-NH2; N-terminus assumed)"
0.05 ± 0.01,6.06,100 ± 0 % of initial concentration,5.00 ± 0.91,–,–,–,–,"CC[C@H](C)[C@H](NC(=O)[C@H](C)NC(=O)[C@H](CC(=O)O)NC(=O)[C@@H](C)NC(=O)[C@@H](N)Cc1ccc(O)cc1)C(=O)N[C@@H](Cc1ccccc1)C(=O)N[C@H](C(=O)N[C@@H](C)C(=O)N[C@@H](CO)C(=O)N[C@H](Cc1ccc(O)cc1)C(=O)N[C@@H](CCCNC(=N)N)C(=O)N[C@@H](CCCCN)C(=O)N[C@H](C(=O)N[C@@H](CC(C)C)C(=O)N[C@@H](C)C(=O)N[C@@H](CCC(N)=O)C(=O)N[C@@H](CC(C)C)C(=O)N[C@@H](CO)C(=O)N[C@@H](C)C(=O)N[C@@H](CCCNC(=N)N)C(=O)N[C@H](CCCCN)C(=O)N[C@@H](CCCCN)C(=O)N[C@@H](CC(C)C)C(=O)N[C@@H](CCC(N)=O)C(=O)N[C@@H](CC(=O)O)C(=O)N[C@H](C(=O)N[C@@H](CCSC)C(=O)N[C@@H](CO)C(=O)N[C@@H](CCCNC(=N)N)C(N)=O)[C@@H](C)CC)C(C)C)[C@@H](C)O [GHRH analog #4, [D-Ala^2, Ala^8, D-Tyr^10, Ala^15, D-Lys^21, Lys^22] hGHRH(1-29)-NH2] (H-Y[dA]DAIFTAS[dY]RKVLAQLSAR[dK]KLQDIMSR-NH2; N-terminus assumed)"
3.70 ± 0.52,1.81,100 ± 0 % of initial concentration,7.74 ± 3.49,–,–,–,–,"YADAIFTAAYRKVLAQLSARKALQDIMSR-NH2 [GHRH analog #2, [Ala^8, Ala^9, Ala^15, Ala^22] hGHRH(1-29)-NH2]"
–,–,–,–,11.92,11.22,939,1.04,"[D-Ala2, D-Tyr10, D-Ala15, Lys22] hGHRH(1-29)-NH2 (peptide)"
